Source: patent US10011607B2, “Ethynyl derivatives” (Hoffmann-La Roche Inc., priority 2015, dated 2018)

Target: human mGlu4 receptor (Homo sapiens (Human), UniProt Q14833)
Assay: Ca2+ mobilization in vitro assay on recombinant human mGlu4 expressed in HEK293 cells (PAM)
Format: cell-based
Conditions: for Emax: HEK293, maximal response in % of maximal stimulatory effect of saturating L-AP4, read-out: Eff. (%); for EC50: HEK293 cells, human mGlu4, in presence of EC20 of L-AP4, read-out: EC50 (nM) mGlu4PAM
Source text: FIG. 1: Illustrates the experimental outline for mGlu4 PAM Ca^2+ mobilization screening assay and the determination of EC50 and % Emax values. […] A depression of the signal observed after addition of the EC20 concentration of L-AP4 was indicative of an inhibitory activity of the test compound.
Determination of EC50 Values Using a Ca2+ Mobilization In Vitro Assay on Recombinant Human mGlu4 Expressed in HEK293 Cells:
A monoclonal HEK-293 cell line stably transfected with a cDNA encoding for the human mGlu4 receptor was generated; for the work with mGlu4 Positive Allosteric Modulators (PAMs), a cell line with low receptor expression levels and low constitutive receptor activity was selected to allow the differentiation of agonistic versus PAM activity. Cells were cultured according to standard protocols (Freshney, 2000) in Dulbecco's Modified Eagle Medium with high glucose supplemented with 1 mM glutamine, 10% (vol/vol) heat-inactivated bovine calf serum, Penicillin/Streptomycin, 50 μg/ml hygromycin and 15 μg/ml blasticidin (all cell culture reagents and antibiotics from Invitrogen, Basel, Switzerland).
About 24 hrs before an experiment, 5×10^4 cells/well were seeded in poly-D-lysine coated, black/clear-bottomed 96-well plates. The cells were loaded with 2.5 μM Fluo-4AM in loading buffer (1×HBSS, 20 mM HEPES) for 1 hr at 37° C. and washed five times with loading buffer. The cells were transferred into a Functional Drug Screening System 7000 (Hamamatsu, Paris, France), and 11 half logarithmic serial dilutions of test compound at 37° C. were added and the cells were incubated for 10-30 min. with on-line recording of fluorescence. Following this pre-incubation step, the agonist (2S)-2-amino-4-phosphonobutanoic acid (L-AP4) was added to the cells at a concentration corresponding to EC20 with on-line recording of fluorescence; in order to account for day-to-day variations in the responsiveness of cells, the EC20 of L-AP4 was determined immediately ahead of each experiment by recording of a full dose-response curve of L-AP4.
Responses were measured as peak increase in fluorescence minus basal (i.e. fluorescence without addition of L-AP4), normalized to the maximal stimulatory effect obtained with saturating concentrations of L-AP4. Graphs were plotted with the % maximal stimulatory using XLfit, a curve fitting program that iteratively plots the data using Levenburg Marquardt algorithm. The single site competition analysis equation used was y=A+((B−A)/(1+((x/C)D))), where y is the % maximal stimulatory effect, A is the minimum y, B is the maximum y, C is the EC50, x is the log 10 of the concentration of the competing compound and D is the slope of the curve (the Hill Coefficient). From these curves the EC50 (drug concentration at which 50% of the maximal receptor activation was achieved), the Hill coefficient as well as the maximal response in % of the maximal stimulatory effect obtained with saturating concentrations of L-AP4 were calculated (see FIG. 1).

Chain of human mGlu4 receptor (Q14833 33-912): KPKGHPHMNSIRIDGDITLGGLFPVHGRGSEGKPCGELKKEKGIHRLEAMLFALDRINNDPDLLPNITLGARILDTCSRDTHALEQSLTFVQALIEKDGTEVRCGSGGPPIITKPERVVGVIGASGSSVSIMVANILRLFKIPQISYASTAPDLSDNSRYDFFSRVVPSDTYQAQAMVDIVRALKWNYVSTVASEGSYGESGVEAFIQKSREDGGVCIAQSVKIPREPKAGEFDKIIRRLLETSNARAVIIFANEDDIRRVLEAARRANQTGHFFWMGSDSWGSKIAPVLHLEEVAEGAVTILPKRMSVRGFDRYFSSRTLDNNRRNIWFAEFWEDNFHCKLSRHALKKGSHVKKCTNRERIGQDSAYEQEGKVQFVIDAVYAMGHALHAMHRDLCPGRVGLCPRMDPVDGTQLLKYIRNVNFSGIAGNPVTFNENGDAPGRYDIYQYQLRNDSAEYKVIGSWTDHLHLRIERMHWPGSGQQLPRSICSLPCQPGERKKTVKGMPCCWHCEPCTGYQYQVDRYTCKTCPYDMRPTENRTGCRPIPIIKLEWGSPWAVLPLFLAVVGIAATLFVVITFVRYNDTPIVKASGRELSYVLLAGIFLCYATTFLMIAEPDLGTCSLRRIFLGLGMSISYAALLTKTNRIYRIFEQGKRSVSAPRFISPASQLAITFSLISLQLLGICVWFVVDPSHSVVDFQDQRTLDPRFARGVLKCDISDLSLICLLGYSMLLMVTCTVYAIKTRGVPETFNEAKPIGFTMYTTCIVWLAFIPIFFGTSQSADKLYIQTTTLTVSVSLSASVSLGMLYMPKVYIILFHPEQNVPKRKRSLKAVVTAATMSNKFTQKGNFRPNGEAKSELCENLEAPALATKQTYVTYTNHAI

CC12CC(=O)N(c3c(F)cc(C#Cc4ccccc4)cc3F)C(=O)N1CCN(c1cccnn1)C2=O (racemic) [Example 46, (9aRS)-7-[2,6-difluoro-4-(2-phenylethynyl)phenyl]-9a-methyl-2-pyridazin-3-yl-4,9-dihydro-3H-pyrazino[1,2-c]pyrimidine-1,6,8-trione]
Emax: 106%
EC50: 132 nM

Cc1ccc(N2CCN3C(=O)N(c4c(F)cc(C#Cc5ccccc5)cc4F)C(=O)CC3(C)C2=O)nn1 (racemic) [Example 48, (9aRS)-7-[2,6-difluoro-4-(2-phenylethynyl)phenyl]-9a-methyl-2-(6-methylpyridazin-3-yl)-4,9-dihydro-3H-pyrazino[1,2-c]pyrimidine-1,6,8-trione]
Emax: 120%
EC50: 198 nM

Cn1ncc(N2CCN3C(=O)N(c4c(F)cc(C#Cc5ccccc5)cc4F)C(=O)CC3(C)C2=O)cc1=O (racemic) [Example 51, (9aRS)-7-[2,6-difluoro-4-(2-phenylethynyl)phenyl]-9a-methyl-2-(1-methyl-6-oxo-pyridazin-4-yl)-4,9-dihydro-3H-pyrazino[1,2-c]pyrimidine-1,6,8-trione]
Emax: 120%
EC50: 191 nM

CC12CC(=O)N(c3c(F)cc(C#Cc4ccccc4)cc3F)C(=O)N1CCN(c1nccs1)C2=O (racemic) [Example 52, (9aRS)-7-[2,6-difluoro-4-(2-phenylethynyl)phenyl]-9a-methyl-2-thiazol-2-yl-4,9-dihydro-3H-pyrazino[1,2-c]pyrimidine-1,6,8-trione]
Emax: 97%
EC50: 113 nM

Cc1cnc(N2CCN3C(=O)N(c4c(F)cc(C#Cc5ccccc5)cc4F)C(=O)CC3(C)C2=O)s1 (racemic) [Example 53, (9aRS)-7-[2,6-difluoro-4-(2-phenylethynyl)phenyl]-9a-methyl-2-(5-methylthiazol-2-yl)-4,9-dihydro-3H-pyrazino[1,2-c]pyrimidine-1,6,8-trione]
Emax: 100%
EC50: 88 nM

Cc1csc(N2CCN3C(=O)N(c4c(F)cc(C#Cc5ccccc5)cc4F)C(=O)CC3(C)C2=O)n1 (racemic) [Example 54, (9aRS)-7-[2,6-difluoro-4-(2-phenylethynyl)phenyl]-9a-methyl-2-(4-methylthiazol-2-yl)-4,9-dihydro-3H-pyrazino[1,2-c]pyrimidine-1,6,8-trione]
Emax: 97%
EC50: 48 nM

CC12CC(=O)N(c3c(F)cc(C#Cc4ccccc4)cc3F)C(=O)N1CCN(c1nc(C#N)cs1)C2=O (racemic) [Example 55, 2-[(9aRS)-7-[2,6-difluoro-4-(2-phenylethynyl)phenyl]-9a-methyl-1,6,8-trioxo-4,9-dihydro-3H-pyrazino[1,2-c]pyrimidin-2-yl]thiazole-4-carbonitrile]
Emax: 94%
EC50: 77 nM

CC12CC(=O)N(c3c(F)cc(C#Cc4ccccc4)cc3F)C(=O)N1CCN(c1nc(C(F)(F)F)cs1)C2=O (racemic) [Example 56, (9aRS)-7-[2,6-difluoro-4-(2-phenylethynyl)phenyl]-9a-methyl-2-[4-(trifluoromethyl)thiazol-2-yl]-4,9-dihydro-3H-pyrazino[1,2-c]pyrimidine-1,6,8-trione]
Emax: 88%
EC50: 166 nM

CC12CC(=O)N(c3c(F)cc(C#Cc4ccccc4)cc3F)C(=O)N1CCN(c1ncc(C(F)(F)F)s1)C2=O (racemic) [Example 57, (9aRS)-7-[2,6-difluoro-4-(2-phenylethynyl)phenyl]-9a-methyl-2-[5-(trifluoromethyl)thiazol-2-yl]-4,9-dihydro-3H-pyrazino[1,2-c]pyrimidine-1,6,8-trione]
Emax: 103%
EC50: 108 nM

Cn1cnc(N2CCN3C(=O)N(c4c(F)cc(C#Cc5ccccc5)cc4F)C(=O)CC3(C)C2=O)c1 (racemic) [Example 58, (9aRS)-7-[2,6-difluoro-4-(2-phenylethynyl)phenyl]-9a-methyl-2-(1-methylimidazol-4-yl)-4,9-dihydro-3H-pyrazino[1,2-c]pyrimidine-1,6,8-trione]
Emax: 91%
EC50: 214 nM

Cc1cn(C)c(N2CCN3C(=O)N(c4c(F)cc(C#Cc5ccccc5)cc4F)C(=O)CC3(C)C2=O)n1 (racemic) [Example 59, (9aRS)-7-[2,6-difluoro-4-(2-phenylethynyl)phenyl]-2-(1,4-dimethylimidazol-2-yl)-9a-methyl-4,9-dihydro-3H-pyrazino[1,2-c]pyrimidine-1,6,8-trione]
Emax: 107%
EC50: 104 nM

Cc1nc(N2CCN3C(=O)N(c4c(F)cc(C#Cc5ccccc5)cc4F)C(=O)CC3(C)C2=O)cn1C (racemic) [Example 60, (9aRS)-7-[2,6-difluoro-4-(2-phenylethynyl)phenyl]-2-(1,2-dimethylimidazol-4-yl)-9a-methyl-4,9-dihydro-3H-pyrazino[1,2-c]pyrimidine-1,6,8-trione]
Emax: 137%
EC50: 145 nM

Cn1ccc(N2CCN3C(=O)N(c4c(F)cc(C#Cc5ccccc5)cc4F)C(=O)CC3(C)C2=O)n1 (racemic) [Example 62, (9aRS)-7-[2,6-difluoro-4-(2-phenylethynyl)phenyl]-9a-methyl-2-(1-methylpyrazol-3-yl)-4,9-dihydro-3H-pyrazino[1,2-c]pyrimidine-1,6,8-trione]
Emax: 112%
EC50: 149 nM

Cn1nccc1N1CCN2C(=O)N(c3c(F)cc(C#Cc4ccccc4)cc3F)C(=O)CC2(C)C1=O (racemic) [Example 64, (9aRS)-7-[2,6-difluoro-4-(2-phenylethynyl)phenyl]-9a-methyl-2-(2-methylpyrazol-3-yl)-4,9-dihydro-3H-pyrazino[1,2-c]pyrimidine-1,6,8-trione]
Emax: 155%
EC50: 125 nM

Cc1cc(N2CCN3C(=O)N(c4c(F)cc(C#Cc5ccccc5)cc4F)C(=O)CC3(C)C2=O)n(C)n1 (racemic) [Example 66, (9aRS)-7-[2,6-difluoro-4-(2-phenylethynyl)phenyl]-2-(2,5-dimethylpyrazol-3-yl)-9a-methyl-4,9-dihydro-3H-pyrazino[1,2-c]pyrimidine-1,6,8-trione]
Emax: 142%
EC50: 85 nM

Cn1cc(N2CCN3C(=O)N(c4c(F)cc(C#Cc5ccccc5)cc4F)C(=O)CC3(C)C2=O)cn1 (racemic) [Example 67, (9aRS)-7-[2,6-difluoro-4-(2-phenylethynyl)phenyl]-9a-methyl-2-(1-methylpyrazol-4-yl)-4,9-dihydro-3H-pyrazino[1,2-c]pyrimidine-1,6,8-trione]
Emax: 129%
EC50: 113 nM

CC12CC(=O)N(c3c(F)cc(C#Cc4ccccc4)cc3Cl)C(=O)N1CCN(c1cccnc1)C2=O (racemic) [Example 74, (9aRS)-7-[2-chloro-6-fluoro-4-(2-phenylethynyl)phenyl]-9a-methyl-2-(3-pyridyl)-4,9-dihydro-3H-pyrazino[1,2-c]pyrimidine-1,6,8-trione]
Emax: 120%
EC50: 102 nM

CC12CC(=O)N(c3c(F)cc(C#Cc4ccccc4)cc3Cl)C(=O)N1CCN(c1ccncc1)C2=O (racemic) [Example 75, (9aRS)-7-[2-chloro-6-fluoro-4-(2-phenylethynyl)phenyl]-9a-methyl-2-(4-pyridyl)-4,9-dihydro-3H-pyrazino[1,2-c]pyrimidine-1,6,8-trione]
Emax: 128%
EC50: 210 nM

CC12CC(=O)N(c3c(F)cc(C#Cc4ccccc4)cc3Cl)C(=O)N1CCN(c1ccccn1)C2=O (racemic) [Example 76, (9aRS)-7-[2-chloro-6-fluoro-4-(2-phenylethynyl)phenyl]-9a-methyl-2-(2-pyridyl)-4,9-dihydro-3H-pyrazino[1,2-c]pyrimidine-1,6,8-trione]
Emax: 150%
EC50: 128 nM

Cn1cc(N2CCN3C(=O)N(c4c(F)cc(C#Cc5ccccc5)cc4Cl)C(=O)CC3(C)C2=O)cn1 (racemic) [Example 77, (9aRS)-7-[2-chloro-6-fluoro-4-(2-phenylethynyl)phenyl]-9a-methyl-2-(1-methylpyrazol-4-yl)-4,9-dihydro-3H-pyrazino[1,2-c]pyrimidine-1,6,8-trione]
Emax: 111%
EC50: 104 nM

Cc1cccc(CN2CCN3C(=O)N(c4c(F)cc(C#Cc5ccccc5)cc4F)C(=O)CC3(C)C2=O)c1 (racemic) [Example 83, (9aRS)-7-[2,6-difluoro-4-(2-phenylethynyl)phenyl]-9a-methyl-2-(m-tolylmethyl)-4,9-dihydro-3H-pyrazino[1,2-c]pyrimidine-1,6,8-trione]
Emax: 79%
EC50: 173 nM
